Reference: patent US20100173853A1, “COMBINATION OF MONOSACCHARIDES WITH ASCORBIC ACID AND USE THEREOF” (L'OREAL, priority 2008, published 2010)
Entries after “also recorded” stand apart in the source; their conditions may differ.

Experiments:
Collagen VI Col6A1 = assay: Expression of collagen VI alpha 1-chain by dermal fibroblasts (RNA); assay type: cell-based; conditions: human dermal fibroblasts; Rhamnose 1 mM, Vitamin C 50 μM, alone or associated; D3 or D5 not stated
Experimental: (§1) This example describes the synergic effect of the association of vitamin C with L-rhamnose on the expression of the alpha 1-chain of collagens VI and XII of the extracellular matrix.
(§2) Human dermal fibroblasts (used at the ninth passage) are obtained from mammary or abdominal surgeries. The culture medium implemented is DMEM, supplemented with: • fetal calf serum (FCS), 10% • L-Glutamine, 2 mM (Invitrogen 25030024), • Penicillin (50 UI/mL), streptomycin (50 μg/mL), (Invitrogen 15070063), • Sodium pyruvate (Invitrogen 11360039), and • Non essential amino acids (Invitrogen 11140035).
(§3) Fibroblasts are cultured (D0) in supplemented DMEM medium as described above, incubated at 37° C. znd 5% CO2 in an atmosphere saturated with water. After adhesion of the cells (D1), the culture medium is removed and replaced with medium containing vitamin C, L-rhamnose or their association. The different stimulation conditions (vitamin C 25 μM, 50 μM, Rhamnose 1 mM and the different associations) were performed in triplicate (12 well dish). Studies of the expression of the different collagenes were performed on D3 and D5.
(§4) For each condition and at each time (D3 and D5), the supernatants are removed and the cell lawns are lysed. […]
(§5) RNAs are then quantified in fluorescence according to the Ribogreen protocol (Quan-it, Ribogreen RNA assay kit, invitrogen R11490) and reading with Tecan Safire. […]

Collagen XII Cola12A1 = assay: Expression of collagen XII alpha 1-chain by dermal fibroblasts (RNA); assay type: cell-based; conditions: human dermal fibroblasts; Rhamnose 1 mM, Vitamin C 50 μM, alone or associated; D3 or D5 not stated
Experimental: as §1, §2, §3, §4, §5

[1] = system: keratinocytes (HaCat line); assay: Proliferation of keratinocytes in medium deficient in growth factors (Cyquant, Nile red, XTT probes); assay type: cell-based; conditions: HaCat keratinocytes in medium depleted in growth factors
Experimental: The keratinocytes (HaCat line) are cultured under two conditions: whole defined culture medium (standard condition) and culture medium deficient in growth factors. This deficient medium gives rise to a controlled delay in cell proliferation. Under these conditions, it is then possible to measure the effects of compounds capable of compensating for the deficiency in growth factors of the culture medium and thus of relaunching the cell multiplication and/or of stimulating cell metabolism.
The keratinocyte proliferation is measured by means of three markers on the same cell population: the level of DNA, which is proportional to the number of cells (Cyquant probe), the level of constituent polar lipids of cell membranes (Nile red probe) and the mitochondrial respiration, which reflects the general cell metabolism (XTT probe).

type I procollagen = assay: Synthesis of procollagen 1 in reconstructed skin (indirect immunofluorescence); assay type: cell-based, human

Row | SMILES | intensity of the biosynthesis of Collagen VI (Col6A1) compared to the control that is at 100 (Collagen VI Col6A1) | intensity of the biosynthesis of Collagen XII (Cola12A1) compared to the control that is at 100 (Collagen XII Cola12A1) | keratinocyte proliferation (efficacy) ([1]; 500 μM) | level of DNA (Cyquant) ([1]; 1 mM, vs untreated control) | level of polar lipids (Nile red signal) ([1]; 1 mM, vs untreated control) | mitochondrial respiration (XTT signal) ([1]; 1 mM, vs untreated control) | procollagen 1 synthesis (green fluorescence) vs control skin (type I procollagen; 1 mM, 120 hours) | procollagen 1 synthesis (type I procollagen; 5 mM)
1 | O=C1O[C@H]([C@@H](O)CO)C(O)=C1O [Vitamin C, ascorbic acid] | 154 | 124 |  |  |  |  |  | 
2 | C[C@H](O)[C@H](O)[C@@H](O)[C@@H](O)C=O [Rhamnose, L-rhamnose] | 109 | 115 | already show efficacy | significantly increased | significantly increased | significantly increased | stimulation; also recorded: marked increase | stimulation
